# From ChEMBL document CHEMBL4004838, “Design and synthesis of novel phenyl -1, 4-beta-carboline-hybrid molecules as potential anticancer agents” (Eur J Med Chem, 2017)
# How the values were obtained:
# Type in all cases: functional
# HL-60(TB) [1] = assay: Growth inhibition of human HL-60(TB) cells incubated for 48 hrs by sulforhodamine B assay; conditions: HL-60, 48 h
# HOP-62 [2] = assay: Growth inhibition of human HOP62 cells incubated for 48 hrs by sulforhodamine B assay; conditions: HOP-62, 48 h
# COLO 205 = assay: Growth inhibition of human COLO205 cells incubated for 48 hrs by sulforhodamine B assay; conditions: COLO 205, 48 h
# HCT-116 = assay: Growth inhibition of human HCT116 cells incubated for 48 hrs by sulforhodamine B assay; conditions: HCT-116, 48 h
# SF-539 [3] = assay: Growth inhibition of human SF539 cells incubated for 48 hrs by sulforhodamine B assay; conditions: SF-539, 48 h
# OVCAR-3 [4] = assay: Growth inhibition of human OVCAR3 cells incubated for 48 hrs by sulforhodamine B assay; conditions: OVCAR-3, 48 h
# NCI-H460 = assay: Growth inhibition of human NCI-H460 cells assessed as cell growth at 0.01 uM incubated for 48 hrs by sulforhodamine B assay relative to control; conditions: NCI-H460, 48 h, read-out: Activity
# HCT-15 = assay: Growth inhibition of human HCT15 cells assessed as cell growth at 0.01 uM incubated for 48 hrs by sulforhodamine B assay relative to control; conditions: HCT-15, 48 h, read-out: Activity
# SF-539 [5] = assay: Growth inhibition of human SF539 cells assessed as cell growth at 0.01 uM incubated for 48 hrs by sulforhodamine B assay relative to control; conditions: SF-539, 48 h, read-out: Activity
# Malme-3M = assay: Growth inhibition of human MALME-3M cells assessed as cell growth at 0.01 uM incubated for 48 hrs by sulforhodamine B assay relative to control; conditions: read-out: Activity
# HL-60(TB) [6] = assay: Growth inhibition of human HL-60(TB) cells assessed as cell growth at 0.1 uM incubated for 48 hrs by sulforhodamine B assay relative to control; conditions: HL-60, 48 h, read-out: Activity
# HOP-62 [7] = assay: Growth inhibition of human HOP62 cells assessed as cell growth at 0.1 uM incubated for 48 hrs by sulforhodamine B assay relative to control; conditions: HOP-62, 48 h, read-out: Activity
# HCC 2998 = assay: Growth inhibition of human HCC2998 cells assessed as cell growth at 0.1 uM incubated for 48 hrs by sulforhodamine B assay relative to control; conditions: HCC 2998, 48 h, read-out: Activity
# SK-MEL-2 = assay: Growth inhibition of human SK-MEL-2 cells assessed as cell growth at 0.1 uM incubated for 48 hrs by sulforhodamine B assay relative to control; conditions: SK-MEL-2, 48 h, read-out: Activity
# OVCAR-3 [8] = assay: Growth inhibition of human OVCAR3 cells assessed as cell growth at 0.1 uM incubated for 48 hrs by sulforhodamine B assay relative to control; conditions: OVCAR-3, 48 h, read-out: Activity
# DU-145 = assay: Growth inhibition of human DU145 cells assessed as cell growth at 0.1 uM incubated for 48 hrs by sulforhodamine B assay relative to control; conditions: DU-145, 48 h, read-out: Activity
# EKVX = assay: Growth inhibition of human EKVX cells assessed as cell growth at 1 uM incubated for 48 hrs by sulforhodamine B assay relative to control; conditions: read-out: Activity
# HT-29 = assay: Growth inhibition of human HT-29 cells assessed as cell growth at 1 uM incubated for 48 hrs by sulforhodamine B assay relative to control; conditions: HT-29, 48 h, read-out: Activity
# SF-295 [9] = assay: Growth inhibition of human SF295 cells assessed as cell growth at 1 uM incubated for 48 hrs by sulforhodamine B assay relative to control; conditions: SF-295, 48 h, read-out: Activity
# OVCAR-3 [10] = assay: Growth inhibition of human OVCAR3 cells assessed as cell growth at 1 uM incubated for 48 hrs by sulforhodamine B assay relative to control; conditions: OVCAR-3, 48 h, read-out: Activity
# RXF 393 = assay: Growth inhibition of human RXF393 cells assessed as cell growth at 1 uM incubated for 48 hrs by sulforhodamine B assay relative to control; conditions: RXF 393, 48 h, read-out: Activity
# MDA-MB-231 = assay: Growth inhibition of human MDA-MB-231 cells assessed as cell growth at 1 uM incubated for 48 hrs by sulforhodamine B assay relative to control; conditions: MDA-MB-231, 48 h, read-out: Activity
# RPMI-8226 = assay: Growth inhibition of human RPMI8226 cells assessed as cell growth at 100 uM incubated for 48 hrs by sulforhodamine B assay relative to control; conditions: RPMI-8226, 48 h, read-out: Activity
# A549 = assay: Growth inhibition of human A549/ATCC cells assessed as cell growth at 100 uM incubated for 48 hrs by sulforhodamine B assay relative to control; conditions: A549, 48 h, read-out: Activity
# HOP-62 [11] = assay: Growth inhibition of human HOP62 cells assessed as cell growth at 100 uM incubated for 48 hrs by sulforhodamine B assay relative to control; conditions: HOP-62, 48 h, read-out: Activity
# SF-295 [12] = assay: Growth inhibition of human SF295 cells assessed as cell growth at 100 uM incubated for 48 hrs by sulforhodamine B assay relative to control; conditions: SF-295, 48 h, read-out: Activity
# SNB-19 = assay: Growth inhibition of human SNB19 cells assessed as cell growth at 100 uM incubated for 48 hrs by sulforhodamine B assay relative to control; conditions: SNB-19, 48 h, read-out: Activity
# SNB-75 = assay: Growth inhibition of human SNB75 cells assessed as cell growth at 100 uM incubated for 48 hrs by sulforhodamine B assay relative to control; conditions: SNB-75, 48 h, read-out: Activity
# U-251 = assay: Growth inhibition of human U251 cells assessed as cell growth at 100 uM incubated for 48 hrs by sulforhodamine B assay relative to control; conditions: U-251, 48 h, read-out: Activity
# OVCAR-3 [13] = assay: Growth inhibition of human OVCAR3 cells assessed as cell growth at 100 uM incubated for 48 hrs by sulforhodamine B assay relative to control; conditions: OVCAR-3, 48 h, read-out: Activity
# [14] = read-out: LC50 (the source's name)
# [15] = read-out: pLC50 (the source's name) (converted)
compound,measurement,setting,value
c1ccc2c3c([nH]c2c1)C(c1ccc(C2NCCc4c2[nH]c2ccccc42)cc1)NCC3 (racemic),GI50,HL-60(TB) [1]; read-out: GI50,1130 nM
same,CC50,HL-60(TB) [1]; [14],6990 nM
same,TGI,HL-60(TB) [1]; read-out: TGI,2810 nM
same,GI50,HL-60(TB) [1]; read-out: pGI50 (converted),1120 nM
same,CC50,HL-60(TB) [1]; [15],6920 nM
same,TGI,HL-60(TB) [1]; read-out: pTGI (converted),2820 nM
same,GI50,HOP-62 [2]; read-out: GI50,1310 nM
same,TGI,HOP-62 [2]; read-out: TGI,2790 nM
same,GI50,HOP-62 [2]; read-out: pGI50 (converted),1320 nM
same,TGI,HOP-62 [2]; read-out: pTGI (converted),2820 nM
same,GI50,COLO 205; read-out: GI50,2040 nM
same,CC50,COLO 205; [14],1200 nM
same,TGI,COLO 205; read-out: TGI,4590 nM
same,GI50,COLO 205; read-out: pGI50 (converted),204 nM
same,CC50,COLO 205; [15],1200 nM
same,TGI,COLO 205; read-out: pTGI (converted),457 nM
same,GI50,HCT-116; read-out: GI50,1700 nM
same,CC50,HCT-116; [14],6590 nM
same,TGI,HCT-116; read-out: TGI,3350 nM
same,GI50,HCT-116; read-out: pGI50 (converted),170 nM
same,CC50,HCT-116; [15],661 nM
same,GI50,SF-539 [3]; read-out: GI50,1620 nM
same,CC50,SF-539 [3]; [14],5710 nM
same,TGI,SF-539 [3]; read-out: TGI,3040 nM
same,GI50,SF-539 [3]; read-out: pGI50 (converted),1620 nM
same,CC50,SF-539 [3]; [15],5750 nM
same,TGI,SF-539 [3]; read-out: pTGI (converted),3020 nM
same,GI50,OVCAR-3 [4]; read-out: GI50,1240 nM
same,CC50,OVCAR-3 [4]; [14],5430 nM
same,TGI,OVCAR-3 [4]; read-out: TGI,2600 nM
same,GI50,OVCAR-3 [4]; read-out: pGI50 (converted),1230 nM
same,CC50,OVCAR-3 [4]; [15],5500 nM
same,TGI,OVCAR-3 [4]; read-out: pTGI (converted),2570 nM
same,growth at 0.01 µM,NCI-H460,105%
same,growth at 0.01 µM,HCT-15,94%
same,growth at 0.01 µM,SF-539 [5],93%
same,growth at 0.01 µM,Malme-3M,89%
same,growth at 0.1 µM,HL-60(TB) [6],116%
same,growth at 0.1 µM,HOP-62 [7],85%
same,growth at 0.1 µM,HCC 2998,81%
same,growth at 0.1 µM,SK-MEL-2,94%
same,growth at 0.1 µM,OVCAR-3 [8],96%
same,growth at 0.1 µM,DU-145,100%
same,growth at 1 µM,EKVX,70%
same,growth at 1 µM,HT-29,16%
same,growth at 1 µM,SF-295 [9],84%
same,growth at 1 µM,OVCAR-3 [10],65%
same,growth at 1 µM,RXF 393,69%
same,growth at 1 µM,MDA-MB-231,3%
same,growth at 100 µM,RPMI-8226,75%
same,growth at 100 µM,A549,87%
same,growth at 100 µM,HOP-62 [11],83%
same,growth at 100 µM,SF-295 [12],89%
same,growth at 100 µM,SNB-19,88%
same,growth at 100 µM,SNB-75,98%
same,growth at 100 µM,U-251,92%
same,growth at 100 µM,OVCAR-3 [13],82%
c1ccc2[nH]c(-c3ccc(-c4nccc5c4[nH]c4ccccc45)cc3)nc2c1,GI50,HL-60(TB) [1]; read-out: GI50,2030 nM
same,CC50,HL-60(TB) [1]; [14],> 1000 nM
same,TGI,HL-60(TB) [1]; read-out: TGI,4590 nM
same,GI50,HL-60(TB) [1]; read-out: pGI50 (converted),2040 nM
same,CC50,HL-60(TB) [1]; [15],> 100000 nM
same,TGI,HL-60(TB) [1]; read-out: pTGI (converted),4570 nM
same,GI50,HOP-62 [2]; read-out: GI50,2800 nM
same,LC50 (concentration killing 50% of cells),HOP-62 [2]; read-out: LC50,5310 nM
same,GI50,HOP-62 [2]; read-out: pGI50 (converted),2820 nM
same,LC50 (concentration killing 50% of cells),HOP-62 [2]; read-out: pLC50 (converted),53700 nM
same,TGI,HOP-62 [2]; read-out: pTGI (converted),10700 nM
same,GI50,COLO 205; read-out: GI50,2320 nM
same,CC50,COLO 205; [14],4350 nM
same,TGI,COLO 205; read-out: TGI,6220 nM
same,GI50,COLO 205; read-out: pGI50 (converted),2340 nM
same,CC50,COLO 205; [15],43700 nM
same,TGI,COLO 205; read-out: pTGI (converted),6170 nM
same,CC50,HCT-116; [14],4430 nM
same,GI50,HCT-116; read-out: pGI50 (converted),2820 nM
same,CC50,HCT-116; [15],44700 nM
same,TGI,HCT-116; read-out: pTGI (converted),10500 nM
same,GI50,SF-539 [3]; read-out: GI50,1890 nM
same,CC50,SF-539 [3]; [14],7170 nM
same,TGI,SF-539 [3]; read-out: TGI,3680 nM
same,GI50,SF-539 [3]; read-out: pGI50 (converted),1910 nM
same,CC50,SF-539 [3]; [15],7240 nM
same,TGI,SF-539 [3]; read-out: pTGI (converted),3720 nM
same,GI50,OVCAR-3 [4]; read-out: GI50,1800 nM
same,CC50,OVCAR-3 [4]; [14],7360 nM
same,TGI,OVCAR-3 [4]; read-out: TGI,3640 nM
same,GI50,OVCAR-3 [4]; read-out: pGI50 (converted),1820 nM
same,CC50,OVCAR-3 [4]; [15],7410 nM
same,TGI,OVCAR-3 [4]; read-out: pTGI (converted),3630 nM
same,growth at 0.01 µM,NCI-H460,107%
same,growth at 0.01 µM,HCT-15,93%
same,growth at 0.01 µM,SF-539 [5],96%
same,growth at 0.01 µM,Malme-3M,93%
same,growth at 0.1 µM,HL-60(TB) [6],92%
same,growth at 0.1 µM,HOP-62 [7],89%
same,growth at 0.1 µM,HCC 2998,95%
same,growth at 0.1 µM,SK-MEL-2,97%
same,growth at 0.1 µM,OVCAR-3 [8],103%
same,growth at 0.1 µM,DU-145,96%
same,growth at 1 µM,EKVX,93%
same,growth at 1 µM,HT-29,106%
same,growth at 1 µM,SF-295 [9],94%
same,growth at 1 µM,OVCAR-3 [10],92%
same,growth at 1 µM,RXF 393,104%
same,growth at 1 µM,MDA-MB-231,99%
same,growth at 100 µM,RPMI-8226,43%
same,growth at 100 µM,A549,58%
same,growth at 100 µM,HOP-62 [11],70%
same,growth at 100 µM,SF-295 [12],71%
same,growth at 100 µM,SNB-19,29%
same,growth at 100 µM,SNB-75,84%
same,growth at 100 µM,U-251,75%
same,growth at 100 µM,OVCAR-3 [13],58%
